In brackets after ≈: the same amount, converted by molar mass. Where two headings read alike, the source gives them in different places.

As usually defined, the solubility is the concentration that dissolves in the medium under given conditions. One may read the IC50 as the point on the concentration scale where inhibition reaches its midpoint. A low value points to higher potency. As usually defined, the bioavailability is dose-corrected exposure relative to a reference, in per cent. As usually defined, the MIC is the lowest concentration found to suppress growth. Lower therefore signals inhibition by little substance.

In data set [1] the test system is Clostridium difficile 2009155, a NAP1/027 strain. The experiment in a line: Hamster CDI model. The following applies: 0.3 mg/kg/day by oral route, 5 days. It is filed as in vivo. How it is done:
The in vivo efficacy of test compounds were evaluated in a hamster CDI model caused by Clostridium difficile 2009155, a NAP1/027 strain. Syrine hamsters (6-8-weeks old) were primed with a single subcutaneous injection of clindamycin (30 mg/kg) 1-5 days prior to infection. Hamsters were infected by oral gavage with 1 ml of spore suspension ([…]) prepared in PBS. The drug was administered to the hamsters 6 hours post infection by oral or subcutaneous route at an interval of 24 hours for 5 days. The death and survival of the non-treated group and the drug-administered group were recorded once daily for 35 days.

For the next data set, the system named is Staphylococcus aureus. The experiment in a line: Neutropenic mouse thigh or calf muscle infection model. Format: in vivo. The following applies: neutropenic mice, compared with linezolid. The text has this: After culture in broth medium (i) suitable diluent of a bacterial suspension of the Staphylococcus aureus strain, or (ii) equivalent mixture of suitable diluent of a bacterial suspension of the Enterococcus faecium strain and a 10% mucin suspension were used as the inoculum. The bacterial suspension was inoculated under anesthesia with a ketamine-xylazine mixture into the thigh or calf muscle of Swiss albino mice or ICR mice (4- to 6-week-old) compromised by the cyclophosphamide administration. The drug was administered to the mice 1 to 8 times at an interval of 3 to 24 hours. The number of bacteria in the thigh or calf muscle was counted for the non-treated group immediately before initial administration of the drug (pre-control), for the non-treated group (post-control) and for the drug-administered group on the next day of administration of the drug and infection. A change in the number of bacteria in the thigh or calf muscle was used as an index of therapeutic effect.

Data set [2] in a line: Solubility in water (JP1 / JP2 fluids). It is filed as physicochemical. To be noted: thermodynamic from solid. The procedure, abridged: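 DMSO stock (10 mmol/L) dried down, residue shaken 30 min in JP1 or JP2 fluid after 1 min sonication, then held 1 h dark at room temperature. Filtrate diluted and quantified by UPLC against 100 and 5 μmol/L standards.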
Data set [3] addresses Clostridium difficile DNA gyrase (Clostridioides difficile, UniProt Q18C89). The experiment in a line: DNA supercoiling inhibition assay. To be noted: supercoiling of relaxed pBR322 DNA, 60 minutes at 37° C. It is filed as biochemical. In a few lines: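 Relaxed pBR322 (400 ng) supercoiled by C. difficile gyrase for 60 min at 37 °C in Tris-HCl pH 7.5 with 6 mM MgCl2, 70 mM KCl, compounds added from 20% DMSO. Products resolved on 1.0% agarose, EtBr-stained; supercoiled band intensity quantified and IC50 fitted.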

Data set [4] is described as follows: Oral bioavailability (BA) in rats. The following applies: male, SD, blood; Rat, 2 mg/kg oral vs jugular vein. Format: in vivo. How it is done: To SD male rats (7 week-old) fasted overnight, a solution of the test compound Captisol® was administered into the jugular vein (3 animals) and a solution of Lutrol® F68 was administered orally (3 animals). The dose of the test compounds was 2 mg/kg body weight of the rat for both administration routes. The amount of Captisol® used was 0.36 mg/kg body weight of the rat. The amount of Lutrol® F68 used was 0.02 mg/kg body weight of the rat. The BA value was calculated by the formula below using the integration value (AUCiv(0-∞)) of the blood concentration extrapolated from time 0 to infinity after administration of both test compounds. The greater a BA value of the compound shown, the higher the oral bioavailability is.

A further data set has as its system S. aureus ATCC 29213. As to the kind of experiment: Susceptibility of bacteria, broth microdilution MIC. The following applies: Staphylococcus aureus, ATCC29213. Format: cell-based. In a few lines:
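CLSI M7-A7 broth microdilution with 2-fold serial compound dilutions; inoculum from 0.5 McFarland suspension diluted 10-fold, 4 μL per well. Incubated 35 °C for about 20 h; MIC is the lowest concentration preventing visible growth.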

Setting [5] is: Japanese Pharmacopeia First Fluid (JP1), pH 1.2, simulated gastric fluid, read-out: Solubility JP1.
[6] abbreviates: Japanese Pharmacopeia Second Fluid (JP2), pH 6.8, aqueous buffer, read-out: Solubility JP2.

Clostridium difficile DNA gyrase, sequence (Q18C90 entry or part of it): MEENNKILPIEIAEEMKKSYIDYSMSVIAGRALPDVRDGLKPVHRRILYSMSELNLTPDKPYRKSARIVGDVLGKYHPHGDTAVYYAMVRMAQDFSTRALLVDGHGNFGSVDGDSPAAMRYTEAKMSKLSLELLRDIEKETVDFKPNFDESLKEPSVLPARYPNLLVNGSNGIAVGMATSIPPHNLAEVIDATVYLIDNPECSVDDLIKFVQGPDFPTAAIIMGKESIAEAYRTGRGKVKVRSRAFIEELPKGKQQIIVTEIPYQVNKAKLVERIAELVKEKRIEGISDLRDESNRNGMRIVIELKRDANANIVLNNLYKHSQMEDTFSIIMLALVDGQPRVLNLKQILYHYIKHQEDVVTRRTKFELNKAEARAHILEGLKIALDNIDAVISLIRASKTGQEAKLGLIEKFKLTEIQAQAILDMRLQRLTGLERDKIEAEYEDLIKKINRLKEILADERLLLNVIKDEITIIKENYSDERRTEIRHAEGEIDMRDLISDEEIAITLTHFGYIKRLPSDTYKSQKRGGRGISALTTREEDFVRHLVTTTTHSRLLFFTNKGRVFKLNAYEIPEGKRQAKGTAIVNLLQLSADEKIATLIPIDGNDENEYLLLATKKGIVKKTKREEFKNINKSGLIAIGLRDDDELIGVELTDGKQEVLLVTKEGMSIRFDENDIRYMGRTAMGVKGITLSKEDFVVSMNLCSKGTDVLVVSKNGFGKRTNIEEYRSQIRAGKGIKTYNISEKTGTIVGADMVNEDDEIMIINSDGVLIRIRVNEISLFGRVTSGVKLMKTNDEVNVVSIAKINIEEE
Clostridium difficile DNA gyrase, sequence (Q18C89 entry or part of it): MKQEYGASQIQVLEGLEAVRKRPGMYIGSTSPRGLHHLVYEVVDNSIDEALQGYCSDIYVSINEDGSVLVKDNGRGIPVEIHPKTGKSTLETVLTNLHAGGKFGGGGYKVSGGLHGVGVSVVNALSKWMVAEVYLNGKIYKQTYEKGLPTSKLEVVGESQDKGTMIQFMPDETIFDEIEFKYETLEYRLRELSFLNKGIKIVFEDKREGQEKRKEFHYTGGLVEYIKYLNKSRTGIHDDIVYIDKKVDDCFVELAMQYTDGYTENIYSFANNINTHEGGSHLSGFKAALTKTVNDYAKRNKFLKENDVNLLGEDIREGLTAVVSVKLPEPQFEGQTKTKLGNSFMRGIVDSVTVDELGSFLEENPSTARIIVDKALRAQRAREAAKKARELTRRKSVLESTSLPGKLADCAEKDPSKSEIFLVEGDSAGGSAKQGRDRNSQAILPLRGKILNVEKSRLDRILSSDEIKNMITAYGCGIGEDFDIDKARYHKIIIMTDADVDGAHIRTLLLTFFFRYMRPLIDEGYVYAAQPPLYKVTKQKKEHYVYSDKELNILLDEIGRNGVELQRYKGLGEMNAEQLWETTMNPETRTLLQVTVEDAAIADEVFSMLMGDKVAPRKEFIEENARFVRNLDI

Regarding `CCc1[nH]c(C(=O)N[C@@H]2CCN(c3nnc([C@H](C)O)s3)C[C@@H]2OC)nc1Cl` (single isomer, unassigned) [Compound No. 5], the “survival on day 35” value in data set [1] is 100%. Further, the “therapeutic effect against Staphylococcus aureus (number of bacteria in thigh or calf muscle)” value in the data set on Staphylococcus aureus was “equivalent to or higher than linezolid”. Moreover, the solubility at 30 min is 680 µg/mL (≈ 1640 µM) in data set [2] (setting [5]) and 359 µg/mL (≈ 865 µM) in data set [2] (setting [6]). The compound further showed an IC50 in data set [3] of 21.7 nM. In addition, in data set [4], the bioavailability was 60%. For the same compound, it took 0.5 µg/mL (≈ 1.21 µM) to inhibit growth against S. aureus ATCC 29213 (MIC).

As for `CCc1[nH]c(C(=O)N[C@@H]2CCN(c3nnc(C(C)(C)O)s3)C[C@@H]2OC)nc1Cl` [Compound No. 2, 4-Chloro-5-ethyl-N-{(3S,4R)-1-[5-(2-hydroxypropan-2-yl)-1,3,4-thiadiazol-2-yl]-3-methoxypiperidin-4-yl}-1H-imidazole-2-carboxamide], the “survival on day 35” value in data set [1] turned out to be 100%. Also, in the data set on Staphylococcus aureus, the “therapeutic effect against Staphylococcus aureus (number of bacteria in thigh or calf muscle)” value was “equivalent to or higher than linezolid”. Moreover, the solubility at 30 min in data set [2] (setting [5]) was 706 µg/mL (≈ 1650 µM); in data set [2] (setting [6]), 256 µg/mL (≈ 597 µM). The same compound had an IC50 in data set [3] of 46.6 nM. For the same compound, the bioavailability in data set [4] stood at 98%. Further, in the data set with S. aureus ATCC 29213, it took 0.25 µg/mL (≈ 0.583 µM) to inhibit growth (MIC).

The values are drawn from patent publication US10399968B2, “Hydroxyalkyl thiadiazole derivatives” (Daiichi Sankyo Company, Limited, priority 2015, dated 2019).
